In US20250041245A1, “ENDOXIFEN FOR TREATMENT OF CANCERS” (Atossa Therapeutics, Inc., priority 2021, published 2025):
Where “and” joins values, the source holds several entries; their conditions need not be identical. Identical values can stand only once. Entries after “also recorded” stand apart in the source; their conditions may differ.

Test system: patient-derived tumor organoids (PDTOs), melanoma
Experiment: Endoxifen screen in PDTOs: melanoma
Type: cell-based, human
Set-up: key to Personalization Category: Personalization categories range from High, Good, Moderate, Low, to None; Personalization categories range from High, Good, Moderate, Low, to None; Personalization categories range from High, Good, Moderate, Low, to None; Personalization categories range from High, Good, Moderate, Low, to None; Personalization categories range from High, Good, Moderate, Low, to None; key to Sensitivity Category: Sensitivity categories range from High, Good, Moderate, Low, to None; Sensitivity categories range from High, Good, Moderate, Low, to None; Sensitivity categories range from High, Good, Moderate, Low, to None; Sensitivity categories range from High, Good, Moderate, Low, to None; Sensitivity categories range from High, Good, Moderate, Low, to None; AUC: unit not given beside the values
Description: This example describes screening endoxifen in patient-derived tumor organoids. Endoxifen was tested as a single agent on tumor organoids derived from patients diagnosed with various cancer types using a personalized cancer treatment screening assay (PARIS© Test, SEngine Precision Medicine). The screen utilized patient-derived tumor organoids (PDTOs) along with high-throughput drug screening and machine learning-guided data analysis to quantify the efficacy of endoxifen against samples derived from individual patients diagnosed with various cancer types. PDTOs are self-organizing, three-dimensional organoid structures that recapitulate structural, functional, and genomic aspects of in vivo organs. The PDTOs were grown in culture from patient tumor biopsy samples.
Fresh patient biopsy samples received following surgery were cleaned and purified. Immune cells (e.g., lymphocytes, blood cells), cancer-associated fibroblasts, and other non-tumor cells were removed to establish pure PDTOs for endoxifen testing. The tumor organoids were grown and expanded by supplying organ- and patient-specific growth factors and nutrients. The PDTOs were treated with increasing concentrations of endoxifen ranging from about 30 nM to about 10 μM, and the drug response was measured using a luminescence readout. A lower luminescence was indicative of a stronger drug response.
The results were analyzed using a “SEngine Precision Medicine” (SPM) scoring system to assess the sensitivity and personalization of each tumor organoid to endoxifen. The SPM score correlates with clinical outcomes, such that a higher SPM score for a specific PDTO-drug combination predicts a more favorable clinical outcome following treatment of the corresponding patient with the tested drug.
This example describes testing endoxifen efficacy against 17 distinct cancer types in patient-derived tumor organoids (PDTOs). Screening of PDTOs was performed as described in EXAMPLE 1. For each PDTO sample, the drug response was measured using a luminescent readout over a range of endoxifen concentrations. The drug response was evaluated based on the area under the fitted dose response curve (AUC) and the SPM scoring system. AUC values were normalized for each PDTO. Briefly, data points at each drug concentration were first normalized to a negative control, then a dose response drug curve was approximated using a four-parameter logistic model fitted to the normalized data points. The area under the curve was calculated from the normalized curve. Normalization allowed for comparison of AUC values between patient samples. The SPM scores were based on machine learning models that incorporate values for how well the drug kill patient cells (sensitivity metric), the relative drug responses of a patient to all other patients in a sample database (personalization metric), and knowledge of clinical outcomes for patients that had been evaluated with the personalized cancer screening assay (PARIS® Test, SEngine Precision Medicine).
The SPM scoring system evaluated whether a PDTO was unresponsive or responsive to endoxifen and the degree of drug response for PDTOs that were responsive to endoxifen. The SPM scoring system generated metrics an SPM score, predictive of clinical outcome, overall drug response (response category), drug sensitivity (sensitivity category), and drug personalization (personalization category). SPM scores ranged from 1-15, corresponding to the following drug response categories: no response (SPM 1-8), low response (SPM 9), moderate response (SPM 10-11), good response (SPM 12-13), and exceptional response (SPM 14-15). […] Moderate to good drug responses (SPM 10-13) may indicate that a drug has clinical relevance, possibly in combination with other drugs. The sensitivity category was determined from the sensitivity metric and is a measure of overall cell death of a patient's cells in response to endoxifen at six concentrations. […]

[1] = melanoma PDTOs, each line one patient sample

SMILES: CC/C(=C(\c1ccc(O)cc1)c1ccc(OCCNC)cc1)c1ccccc1 [Endoxifen, 4-hydroxy-N-desmethyltamoxifen]
- IC50 (Homo sapiens, skin cancer organoid assays, multiple skin cancers (summary statement)): < 10 µM
- Personalization Category [1]: Low and Good and High
- Response Category [1]: Low (low response (SPM 9)); also recorded: Moderate (moderate response (SPM 10-11)); also recorded: Good (good response (SPM 12-13))
- Sensitivity Category [1]: Low and Moderate
- IC50 (melanoma PDTOs, each line one patient sample, four-parameter logistic fit): 2.74 µM and 3.3 µM and 1.44 µM and 7.06 µM
- AUC (melanoma PDTOs, each line one patient sample, normalized area under fitted dose response curve): 0.8952 and 0.7865 and 0.6541 and 0.8094
- SPM Score (melanoma PDTOs, each line one patient sample, score range 1-15): 9 and 11 (2×) and 13
